The structures appear in SMILES notation.

The series in a line: gradient 5% acetonitrile 3 min, to 50% in 2 min, to 85% in 15 min, held 3 min, 100 µL/min. To be noted: column: Zorbax Extend-C18 2.1 x 50 mm; eluents: water / acetonitrile, 0.1% formic acid. The essentials: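 The system's dead and dwell volumes were 40 μL and 900 μL, with a Zorbax Extend-C18 column (2.1 × 50 mm, 1.8 μm) run at 100 μL/min in water and acetonitrile containing 0.1% formic acid each. Pure standards were analyzed in mixtures of ~100 molecules by HPLC–quadrupole time-of-flight mass spectrometry in positive and negative ionization mode. Retention time was assigned from computationally picked, manually inspected adduct peaks.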
`O=C(CS(=O)(=O)c1ccc(Cl)cc1)Nc1nc(-c2ccc3c(c2)OCO3)cs1` gave an RP-LC retention time of 959 s.
To `O=C(Nc1ccc(F)cc1)N1CCc2nc(-c3ccc(F)cc3)ncc2C1` belongs 926 s; to `COc1ccc(C)cc1NC(=O)Cn1nc2nc(Nc3ccc(C)cc3)ccn2c1=O`, 862 s.
For the molecule `Cc1nn(CC(=O)NCCN2CCN(Cc3ccccc3)CC2)c(=O)c2noc(C)c12`, the RP-LC retention time was 576 s.
To `CCOC(=O)c1c(S(=O)(=O)N2CCC(C(=O)Nc3ccc(OCC)cc3)CC2)c(C)n(C)c1C` belongs 853 s.
To `CCCN(C)C(=O)CCc1cc2cc(OC)ccc2[nH]c1=O` belongs 675 s; to `CCC(C)NC(=O)Cn1nc2nc(Nc3ccc(F)cc3)ccn2c1=O` (stereo not given), 684 s; to `CCOc1ccccc1NC(=O)C1CCN(S(=O)(=O)c2cn(C)cn2)CC1`, 868 s.
To `Cc1nc2ccn(Cc3ccco3)c(=O)c2cc1C(=O)N1CCC(C)CC1` belongs 746 s; to `Cc1ccc(NC(=O)N2CCCC2c2c(C)noc2C)cc1F` (stereo not given), 809 s; to `Cn1c(=O)sc2cc(S(=O)(=O)N3CCC(C(=O)N4CCC5(CC4)OCCO5)CC3)ccc21`, 709 s.
For the molecule `O=C1CC(c2noc(-c3ccc4c(c3)OCO4)n2)CN1c1ccc(F)cc1` (stereo not given), the RP-LC retention time amounted to 1200 s.
Turning to `COc1cccc(S(=O)(=O)N2CCC(c3noc(-c4ccccc4)n3)CC2)c1`, the RP-LC retention time turned out to be 1120 s.
For `Cc1nc(-c2ccc(C(=O)N3CCC(C(=O)N4CCc5ccccc54)CC3)cc2)no1`, the RP-LC retention time came out at 816 s.
`O=C1CCCc2c1cc(C(=O)NCc1cccnc1)c(=O)n2-c1ccc(C(F)(F)F)cc1` showed an RP-LC retention time of 644 s.
`COc1ccc(C(=O)NCC(=O)Nc2nc3ccccc3[nH]2)cc1` displayed an RP-LC retention time of 606 s.
To `CCOC(=O)c1nc(Nc2ccc(F)cc2Cl)c2ccccc2n1` belongs 890 s; to `Cc1nc(-c2csc(S(=O)(=O)N3CCC(C(=O)NC4CCCC4)CC3)c2)no1`, 826 s; to `O=C(NCc1cccnc1)c1cn2ccnc(-c3ccccc3)c2n1`, 599 s.
Turning to `CCc1nc(-c2cn(Cc3ccc(F)cc3)nn2)no1`, the RP-LC retention time turned out to be 822 s.
`COc1ccc(N2CCN(c3ncccc3-c3nc(-c4ccccc4)no3)CC2)cc1` had an RP-LC retention time of 1290 s.
For the molecule `CCOc1ccccc1NC(=O)C1CCCN1S(=O)(=O)c1cc2c(cc1C)NC(=O)C(C)O2` (stereo not given), the RP-LC retention time was found to be 784 s.
To `Cc1ccc(CNC(=O)C2CCN(C(=O)N3CCOc4ccc(Cl)cc43)CC2)cc1` belongs 919 s; to `COc1ccc(Cl)cc1NC(=O)Cn1ncc2c(N3CCN(c4ccccn4)CC3)ncnc21`, 642 s.
Molecule `CCS(=O)(=O)N1CC(=O)N(c2ccc(F)cc2C)C(C)(C(=O)NCc2ccccc2)C1` (stereo not given) yielded an RP-LC retention time of 818 s.
For `CCCCCc1nnc(NC(=O)C2CC(=O)N(CCc3c[nH]c4ccc(C)cc34)C2)s1` (stereo not given), the RP-LC retention time was 873 s.
`CCc1ccc(CN2C(=O)CN(S(C)(=O)=O)CC2(C)C(=O)NCc2ccccc2)cc1` (stereo not given) showed an RP-LC retention time of 868 s.
The same measure for `O=C(Nc1ccc(OCC(=O)N2CCN(c3cccc(Cl)c3)CC2)nc1)C1CC1`: 836 s; for `COc1cccc(OC)c1C(=O)Nc1nnc(SCc2nnc(-c3ccccc3C)o2)s1`: 888 s.
Regarding `COCCn1cc(C(=O)Nc2cccc(Cl)c2)c2nn(-c3ccccc3)c(=O)c-2c1`, the RP-LC retention time was determined as 1050 s.
Turning to `CC(=O)NCc1c(-c2ccc(Cl)cc2)nc2n1CCS2`, the RP-LC retention time came out at 568 s.
To `COC(=O)c1cc2c(=O)n(-c3ccc(OC)cc3OC)ccc2nc1C` belongs 803 s; to `CC(C)c1nnc(-c2ccc(S(=O)(=O)N3CCN(C4CCCCC4)CC3)o2)o1`, 644 s.
Molecule `CCn1cnc(S(=O)(=O)N2CCC(C(=O)N3CCc4ccccc43)CC2)c1` showed an RP-LC retention time of 754 s.
To `CCN(CC)CCNC(=O)C1CCN(c2nc3cccnc3s2)CC1` belongs 573 s; to `CC1(C(=O)NCc2ccccc2)CCCN(C(=O)NC2CCCCC2)C1` (stereo not given), 857 s; to `O=C(c1cc2cc(Cl)ccc2[nH]1)N1CCOCC1`, 860 s.
The same measure for `COc1cccc(CN2CCc3nn(CC4CC4)c(=O)n3CC2)n1`: 595 s; for `O=C(Cn1c(=O)n(C2CCCCC2)c2ncccc21)NCc1ccccc1`: 895 s.
In the case of `Cc1cc(C)c(CNC(=O)C2CCCN(c3cnc4nccnc4c3)C2)c(C)c1` (stereo not given), the RP-LC retention time was found to be 819 s.
As to `COc1cccc(C2Cn3nnc(-c4nc(-c5ccc(C)c(C)c5)no4)c3CO2)c1` (stereo not given), the RP-LC retention time stood at 1270 s.
The molecule `CC1CCN(S(=O)(=O)c2ccc3nn(Cc4cccc(Cl)c4)c(=O)n3c2)CC1` gave an RP-LC retention time of 1070 s.
In turn, `Cc1ccc2c(c1)N(Cc1ccccc1C)N=C(C(=O)N1CCOCC1)S2(=O)=O` yielded an RP-LC retention time of 877 s.
To `O=C(CSc1nccnc1N1CCN(c2ccccc2)CC1)Nc1ccc(F)cc1F` belongs 1110 s.
In the case of `COc1ccc(NC(=O)C2CCN(S(=O)(=O)c3cn(C)cn3)CC2)c(OC)c1`, the RP-LC retention time turned out to be 666 s.
The same measure for `CCOC(=O)c1cc(S(=O)(=O)N2CCCC2C(=O)Nc2ccc(C)cc2C)cn1C` (stereo not given): 957 s; for `CC1Oc2ccc(S(=O)(=O)N3CCC(C(=O)Nc4ccccc4F)CC3)cc2NC1=O` (stereo not given): 761 s; for `COc1ccc(-c2nc3ccc(C)cn3c2Nc2ccc(Cl)cc2)cc1`: 782 s.
The same measure for `CCn1c(SC)nnc1-c1nn(C)c2c1CN(C(=O)CCc1ccccc1)CC2`: 798 s; for `O=C(O)CCc1csc(NC(=O)Nc2ccc(Cl)cc2)n1`: 717 s; for `CC(C)CNC(=O)CN1C(=O)C2CCCCN2c2ccc(S(=O)(=O)N(C)C)cc21` (stereo not given): 698 s.
The same measure for `CC(C)n1cnc2cc(CNC(=O)c3cnccn3)ccc21`: 572 s.
Molecule `O=C(CN1CCN(Cc2ccc(F)cc2Cl)C1=O)N1CCN(C2CCCCC2)CC1` had an RP-LC retention time of 644 s.
To `CCOc1ccc(NC(=O)c2c(N3CCCC3=O)c3cc(OC)ccc3n2C)cc1` belongs 984 s; to `COc1ccc(Cl)cc1NC(=O)Cn1cccc(-c2nc(-c3ccc(OC)c(OC)c3)no2)c1=O`, 887 s.
Molecule `O=C(NC1CCN(Cc2ccccc2)CC1)C1CC(=O)N(c2n[nH]c3cccc(F)c23)C1` (stereo not given) yielded an RP-LC retention time of 591 s.
`Cc1cc(C)c(NC(=O)C2CCCN(c3nnc(C)c4c(C)n(-c5ccccc5)nc34)C2)c(C)c1` (stereo not given): the RP-LC retention time worked out at 769 s.
To `CCCCC(=O)N(Cc1ccc(-c2ccccc2-c2nn[nH]n2)cc1)[C@H](C(=O)O)C(C)C` belongs 865 s; to `O=C(Nc1ccc(OCc2nnc(-c3ccccc3)o2)cc1)c1ccccn1`, 905 s; to `CCc1cc(=O)n(CC(=O)N(CC)c2ccccc2)c(N)n1`, 628 s.
To `CCc1noc(-c2ccc(-n3cnc(C(=O)NC4CCCC4)c3)nc2)n1` belongs 865 s; to `CCN1C(SCC(=O)N2CCCC2)=NS(=O)(=O)c2ccccc21`, 684 s; to `O=C(CCC(=O)N1CC2CCCN2c2ccccc21)NCc1ccc2c(c1)OCO2` (stereo not given), 855 s.
The same measure for `COCCN1C(=O)[C@H]2CN(Cc3cc(Cl)ccc3F)C[C@H]2C1=O`: 696 s; for `O=C(c1ccc2c(c1)OCO2)N1CCCn2nc(-c3ccncc3)cc2C1`: 584 s.
As to `NC(=O)c1cccc(-c2cc(Nc3ccc(OC(F)(F)F)cc3)ncn2)c1`, the RP-LC retention time worked out at 765 s.
To `Cc1nn(C)cc1C(=O)N(Cc1ccccc1)c1ccccn1` belongs 674 s; to `CC(C)Cc1ccc(-c2csc(NC(=O)c3cnccn3)n2)cc1`, 1130 s; to `CC(C)OCCCNC(=O)c1cc2c(n(-c3ccc(F)cc3)c1=O)CCCC2=O`, 794 s.
Molecule `CCCc1ccc(S(=O)(=O)N2CCc3c(c(-c4nnc(-c5ccc(F)cc5)o4)nn3C)C2)cc1` came in with an RP-LC retention time of 1070 s.
Molecule `Cn1nc2n(c1=O)CCN(C(=O)c1cscn1)CC2` gave an RP-LC retention time of 560 s.
Turning to `CCN1CCCCc2cc(C(=O)NC(C)COC)sc21` (stereo not given), the RP-LC retention time turned out to be 905 s.
On to `COc1cc2c(cc1C(=O)NCCOc1ccc(Cl)cc1)OCCCO2`, for which the RP-LC retention time is 982 s.
For `Nc1nc(-c2ccccc2)c(C(=O)c2ccccc2)s1`, the RP-LC retention time came to 706 s.
To `CSc1ccccc1C(=O)NCC1(c2ccc(F)cc2)CC1` belongs 875 s; to `O=C(NCCc1ccccc1)Nc1ccccc1NC(=O)c1ccsc1`, 796 s; to `COc1ccc(CC(=O)N2CCCC2c2cc(C(C)C)no2)cc1` (stereo not given), 868 s.
In turn, `Nc1ncnc2c1c(-c1cnc3[nH]ccc3c1)nn2C1CCCC1` had an RP-LC retention time of 709 s.
The same measure for `CCCN(C(=O)c1ccc(C)cc1)c1nc(-c2ccccc2)cs1`: 809 s; for `CCCNc1cc(N2CCC(CCC(=O)NCC)CC2)ncn1`: 595 s.
